“And” between values parts separate entries of the source, which are not always exact repeats. Equal entries are not always repeated.
How the values were obtained:
db−/db− mice = test: Diabetic peripheral neuropathy model, Von Frey threshold, sciatic nerve ROS and MDA; format: in vivo, mouse; conditions: in food 10 mg/kg body weight/day (pregabalin 30 mg/kg body weight/day); for level of MDA in the sciatic nerve after 10 week treatment / level of mitochondrial ROS in the sciatic nerve after 10 week treatment: compared with healthy control group; for mechanical pain threshold after 10 week treatment: compared with normal control group
Method: Male 5-6 week-old male db^−/db^− mice were used in the experiment, and their normoglycemic heterozygous littermates were used as controls. db^−/db^− is a commonly used type 2 diabetes animal model. The compounds was dissolved in DMSO and mixed into food pellets. The animals were given ad libitum access to the pellets, beginning from 8 to 9 weeks of age for 10 weeks. […] The method for detecting mice hindlimb hypersensitivity is performed using Von Frey filaments. […] The difference is significant with P<0.05. The increase of mitochondrial reactive oxygen species (ROS) in the sciatic nerve of mice, which in turn leads to the increase of intracellular malondialdehyde (MDA), is the etiology of this type of neuropathic pain. The efficacy of compound to treat the root cause of the disease was evaluated by measurement of the levels of MDA and mitochondrial ROS from the sciatic nerves.

APP/PS1 transgenic mice = test: Alzheimer's disease model, eight-arm radial water maze and brain gene expression; format: in vivo, mouse; conditions: 30 days in food, 10 mg/kg body weight/day (donepezil 3 mg/kg body weight/day), 5 on the first day
From the text: A common indicator used in academia in memory and dementia experiments is the number of errors in the water maze (reference memory). More errors mean poorer memory. On the last 3 days of dosing, eight-arm radial water maze was used by experimenters who were blind to drug treatment. As a classic experimental instrument, to detect slight deficits in learning and memory, the eight-arm water maze is more sensitive than not only Morris maze, but also Six-arm radial water maze. For details, see reference 8: Alamed J et al. Two-day radial-arm water maze learning and memory task; robust resolution of amyloid-related memory deficits in transgenic mice [J]. […] This experiment uses an eight-arm water maze built in accordance with the above literature. The eight-arm water maze is placed in a basin with an interior diameter of 102 cm. Each arm measures 30 cm long, 14.5 cm wide, and 40 cm high. Escape platform is located at the end of one of the arms. In the reference memory version of the task described here, the goal arm is held constant for all trials, with a different start arm on successive trials. On day one, mice received 12 trials, with trials alternating between visible and hidden platform. On day 2 and 3, mice received 12 additional trials but the platform was kept hidden throughout the trials. Entry into an incorrect arm was scored as a spatial reference error. Errors were averaged into three trial blocks, with four blocks per day, e.g., the first block (the 1st to 3rd trial), the second block (the 4th to 6th trial), and so on. […]. The line charts were made with the number of blocks as the abscissa and the average of the number of errors as the ordinate. At the end of the experiments, the cerebral cortex and hippocampus of the mice were removed, RNA was extracted, and the expression of many genes was analyzed by semi-quantitative RT-PCR. […] The difference is significant with P<0.05.

PPARγ = biological target: T1, PPARγ (Homo sapiens, UniProt P37231); test: In vitro transcriptional activity of PPARγ gene (PPRE-luciferase reporter, HEK 293 T cells); format: cell-based; conditions: HEK 293 T cells transfected with PPARγ expression and PPRE-luc plasmids, 21 hours; read-out: EC50 of PPARγ gene activation
T1 construct: expressed in transfected cells; host or cells: HEK 293 T cells
T1 sequence (P37231 1-505): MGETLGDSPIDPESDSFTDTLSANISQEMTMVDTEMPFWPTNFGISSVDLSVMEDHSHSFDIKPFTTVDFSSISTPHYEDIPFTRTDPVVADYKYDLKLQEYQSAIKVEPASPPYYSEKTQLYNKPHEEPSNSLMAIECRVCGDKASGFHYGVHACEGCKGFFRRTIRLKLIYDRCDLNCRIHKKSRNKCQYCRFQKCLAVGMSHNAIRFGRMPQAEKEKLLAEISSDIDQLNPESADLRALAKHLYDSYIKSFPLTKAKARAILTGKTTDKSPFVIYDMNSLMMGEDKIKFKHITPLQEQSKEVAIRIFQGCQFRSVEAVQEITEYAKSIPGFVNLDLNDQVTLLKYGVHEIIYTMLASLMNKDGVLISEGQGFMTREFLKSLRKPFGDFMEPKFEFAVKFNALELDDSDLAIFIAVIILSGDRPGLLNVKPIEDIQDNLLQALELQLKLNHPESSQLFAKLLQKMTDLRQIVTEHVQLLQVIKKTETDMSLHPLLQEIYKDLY
From the text: In this experiment, the PPARγ gene was used as target gene to detect the in vitro transcription activity of the compounds. The compounds of interest were detected was first dissolved with dimethyl sulfoxide (DMSO). […] First two plasmids were constructed: PPARγ protein expression plasmid and luciferase reporter plasmid. They are both from the lentiviral plasmid pLV-CMVIE-ZsGreen-Puro, whose DNA sequence contains the cytomegalovirus immediate early (CMVie) promoter, ZsGreen and Puro dual reporter. The PPARγ expression plasmid pLV-CMVIE-PPAR[…]-ZsGreen-Puro was constructed by cloning full-length coding sequences of the pertinent receptors into pHBLV-CMVIE-ZsGreen-Puro vector. To construct the luciferase (luc) reporter plasmid pLV-PPRE-luc-ZsGreen-Puro, the CMVie promoter in plasmid pHBLV-CMVIE-ZsGreenPuro was first replaced by a peroxisome proliferator responsive element (PPRE) containing fragments comprised the nucleotide sequence 50-[…], repeated four times in tandem, to generate a new plasmid, at a multiple cloning site of which the luc gene was then inserted. […] The compounds used for screening are representatives for compounds listed in Table 2, and Tables 3 of the present invention. […] Cells were distributed in 10-cm tissue culture plates at a density of 5.5 million cells per plate, and then transfected with the luciferase reporter plasmid (6 nanogram/plate) and the PPARγ expression plasmid (18 nanogram/plate). Cells were cultured for 6 hours. […] Then the cells were distributed in 96-well plates at a density of 20,000 cells per well. After incubation for 6 h, compounds or control with different concentration were placed into each well, resulting in the finical concentration of […] with each concentration in triplicate. Twenty-one hours later, promoter activation was detected by the addition of SteadyLite (PerkinElmer, Waltham, MA) and GloMax 96 Microplate Luminometer (Promega, Madison, WI). The amount of Luminometer emitted from each well is positively correlated with the expression of PPARγ gene. A three-parameter Sigmoid function curve was used to fit the obtained data. The abscissa represents the logarithmic value of the concentration, and the ordinate represents the percentage of PPARγ gene activation relative to those of the control. […] In Statistical analysis, the coefficient of variation is used to measure the robustness and repeatability of the experiment. […] The difference is significant with P<0.05. EC50 is a parameter of its activity.

klotho gene = test: In vivo brain transcriptional activity of klotho gene (RT-PCR of brain mRNA); design: species or system mouse; conditions: 10 mg/kg body weight/day tail vein; for mRNA level of klotho gene in the brain of the mouse relative to vehicle control group: after 10 days of continuous injection; for fold induction at 10 mg/kg: Mus musculus, iv, 720 h, after 30 days of continuous injection, read-out: mRNA level of klotho gene in the brain of the mouse relative to vehicle control group
Method: To verify this hypothesis, adult male Kunming mice were used in the experiments. […] The injection volume is 8 ml/kg body weight. Dimethyl sulfoxide (DMSO) was used as a vehicle control of the compounds. […] The RNA was then reverse-transcribed to the cDNA, and quantified by SYBR Green fluorescence quantitative PCR kit (HaiGene) and a quantitative PCR system (Bio-Rad Min-Opticon Type 2) were used for real-time fluorescent quantitative polymerase chain reaction (RT-PCR). The mouse gene primers were design as follows: • KLOTHO-forward 5′-[…]-3′; • LOTHO-reverse 5′-[…]-3′; • GAPDH-forward 5′-[…]-3′; • GAPDH-reverse 5′-[…]-3′.
Data analysis was performed using the 2^−ΔΔct method. Semi-quantitative values of gene expression were then normalized by the control mean.

klotho gene promoter = test: In vitro transcriptional activity of klotho gene (KL-Luc-3 luciferase cell line); format: cell-based; conditions: 16 h, KL-Luc-3 cells, 16 hours incubation
From the text: The activities of these carbonyl-containing cyclic compounds are indicated by the increased expression of klotho gene. […] The present invention retains the DNA fragment of the klotho gene promoter, but replaces the DNA sequence of the coding region of the klotho gene with those of luciferase, so that the degree of activation of the klotho gene promoter and the expression of the klotho gene will be sensitively determined by detecting the luciferase luminescence signal.
Klotho is an important downstream gene of PPARγ pathway. The following experiments tested the properties of the compounds in Table 2 and 3 to activate the klotho gene in vitro. First, a stable cell line, KL-Luc, was constructed. The klotho gene carried by the cell line retained the DNA sequence of klotho gene promoter, but the coding sequence of the klotho gene was replaced with luciferase. KL-Luc fragment includes a promoter sequence of the klotho gene (a DNA region of 18,000 base pairs in length upstream of the transcription start site of the gene) and a luciferase-encoding sequence. To construct the KL-Luc sequence containing lentiviral vector, the KL-Luc fragment was cloned into the pDONR vector using BP recombinase, so that the target fragment had attL recombination sites on both sides. Then the KL-Luc fragment was transferred from the pDONR vector to a lentiviral vector (without exogenous promoter) pLenti6/BLOCK-IT-DEST. The constructed lentiviral vector of the target fragment was then transfected into HEK293T cells, and then the KL-Luc gene lentiviral expression vector and the […] were co-transfected into HEK293T cells to perform lentiviral packaging. The virus was harvested, and virus titer was calculated. And the lentivirus was used to infect target cells. The stable strains were screened by adding drugs. Finally, monoclonal cell lines were selected from polyclonal cells by cell cloning. The effective luciferase expression of each monoclonal cell line was determined by quantitative polymerase chain reaction (qPCR). The inventors chose a third monoclonal cell line (KL-Luc-3) to continue the compound screening. The compounds of interest were the compounds in Table 2 and 3. At the same time, rosiglitazone and pioglitazone were used as a control. KL-Luc-3 cells were divided into 96-well plates at 5000 cells in 80 microL per well, cultured in a 37° C. carbon dioxide incubator with serum-free Duchenne's Modified Eagle's Medium (DMEM) for 6 hours, and then the compounds were added to a final concentration of 0, 0.1, 0.3, 1, 3, 10, 30 micromole/L, with each concentration in triplicate. After 16 hours of incubation, the SteadyLite (PerkinElmer, Waltham, MA) and the GloMax Microplate Luminometer (Promega, USA) were used for quantitation of luciferase activity. The amount of luminescence emitted from each well is positively related to the transcriptional activity of the klotho promoter. A three-parameter Sigmoid function curve was used to fit the obtained data. The abscissa represents the logarithmic value of the concentration, and the ordinate represents the percentage of the activity relative to those of the control. […] In Statistical analysis, the coefficient of variation is used to measure the robustness and repeatability of the experiment. […] The difference is significant with P<0.05. EC50 is a parameter of its activity. The lower the EC50 value, the higher the activity of corresponding compound.

[1] = tested on: dIoN-CCI rat model of trigeminal neuropathic pain; test: Trigeminal neuralgia model (dIoN-CCI), Von Frey mechanical threshold; conditions: dIoN-CCI rats
From the text: A common rat model of trigeminal neuralgia is a chronic compression injury model (CCI) caused by ligation of the infraorbital nerve (IoN). In the present study, an improved rat model of trigeminal neuropathic pain was used, in which CCI is induced by ligation of distal segment of IoN (dIoN). Wild type male Sprague-Dawley rats with body weight 250 to 260 grams underwent dIoN-CCI surgery experiments. The mechanical threshold of pain in rats without surgery experiments will exceed 6 grams. If the dIoN-CCI surgery is successful, it will reduce the pain threshold to less than 2 grams.
The mice were divided into the following 11 groups with 4 to 5 mice in each group. The formulation used for transdermal treatment is cream. […] The compound administration of each group starts on the third day after successful dIoN-CCI surgery. […] The method for detecting rat facial hypersensitivity is performed using Von Frey filaments. An analysis of variance (ANOVA) and Dunnett post hoc comparison test are used to compare the significance of the differences between different groups of data. The difference is significant with P<0.05.

CCc1ccc(CC/C=C/c2ccc3c(c2)C(=O)CCO3)cc1 [ELB001080, (E)-6-(4-(4-ethylphenyl)but-1-en-1-yl)chroman-4-one]
level of MDA in the sciatic nerve after 10 week treatment (db−/db− mice): reduced
level of mitochondrial ROS in the sciatic nerve after 10 week treatment (db−/db− mice): reduced
mechanical pain threshold after 10 week treatment (db−/db− mice): significantly improved
number of errors in water maze on the third day (APP/PS1 transgenic mice): comparable to that of ELB00824
EC50 (PPARγ): < 6.4 µM

CCc1ccc(C/C=C/c2cccc(CC3NCC(=O)N3)c2)cc1 (centres unmarked) [ELB001090, (E)-2-(3-(3-(4-ethylphenyl)prop-1-en-1-yl)benzyl)imidazolidin-4-one]
mRNA level of klotho gene in the brain of the mouse relative to vehicle control group (klotho gene): more than twice
EC50 (klotho gene promoter): < 9.7 µM
EC50 (PPARγ): < 6.4 µM and 3.9 µM

CCc1ccc(CC/C=C/c2ccc3c(c2)NC(=O)CO3)cc1 [ELB00993, (E)-6-(4-(4-ethylphenyl)but-1-en-1-yl)-2H-benzo[b][1,4]oxazin-3(4H)-one]
mRNA level of klotho gene in the brain of the mouse relative to vehicle control group (klotho gene): more than twice
fold induction at 10 mg/kg (klotho gene): > 5
EC50 (PPARγ): < 6.4 µM

CC(C)C[C@H](CN)CC(=O)O [pregabalin, reference compound]
level of MDA in the sciatic nerve after 10 week treatment (db−/db− mice): significantly higher
level of mitochondrial ROS in the sciatic nerve after 10 week treatment (db−/db− mice): significantly higher
mechanical pain threshold after 10 week treatment (db−/db− mice): no difference

NCC1(CC(=O)O)CCCCC1 [gabapentin, reference compound]
side effect at the time of administration [1]: drowsiness
duration of the anti-allodynic effect ([1]; oral gabapentin group (1 mg/kg body weight)): 1 h

CCc1ccc(CCCCc2ccc3c(c2)NC(=O)CC3)cc1 [ELB00702, 7-(4-(4-ethylphenyl)butyl)-3,4-dihydroquinolin-2(1H)-one]
mRNA level of klotho gene in the brain of the mouse relative to vehicle control group (klotho gene): more than twice
fold induction at 10 mg/kg (klotho gene): > 5
EC50 (PPARγ): < 6.4 µM and 3.1 µM

CCc1ccc(CCCCc2ccc3c(c2)OCCC(=O)N3)cc1 [ELB00827, 8-(4-(4-ethylphenyl)butyl)-2,3-dihydrobenzo[b][1,4]oxazepin-4(5H)-one]
mRNA level of klotho gene in the brain of the mouse relative to vehicle control group (klotho gene): more than twice
fold induction at 10 mg/kg (klotho gene): > 5
EC50 (klotho gene promoter): < 9.7 µM
EC50 (PPARγ): < 6.4 µM
